Experimental data published in ChEMBL document CHEMBL3351315, “Tanzawaic acid derivatives from a marine isolate of Penicillium sp. (SF-6013) with anti-inflammatory and PTP1B inhibitory activities” (Bioorg Med Chem Lett, 2014).
One block for each compound: values may come before it. The source made the active and inactive calls. No cut-off for these calls is given here.

What was measured:
RAW264.7 [1] = experiment: Inhibition of LPS-induced COX2 protein expression in mouse RAW264.7 cells pre-treated for 1 hr before LPS stimulation for 18 hrs by Western blot method; format: functional, cell-based
BV-2 [2] = experiment: Inhibition of LPS-induced nitric oxide production in mouse BV2 cells pre-treated for 3 hrs before LPS stimulation by ELISA based Griess assay; format: functional, cell-based
[3] = Effect on beta-actin protein expression in LPS-induced mouse BV2 cells pre-treated for 1 hr before LPS stimulation for 18 hrs by Western blot method; format: ADME, cell-based; conditions: bv-2, 18 h
RAW264.7 [4] = experiment: Inhibition of LPS-induced nitric oxide production in mouse RAW264.7 cells pre-treated for 3 hrs before LPS stimulation by ELISA based Griess assay; format: functional, cell-based
RAW264.7 [5] = experiment: Effect on beta-actin protein expression in LPS-induced mouse RAW264.7 cells pre-treated for 1 hr before LPS stimulation for 18 hrs by Western blot method; format: ADME, cell-based; conditions: raw264.7, 18 h
RAW264.7 [6] = experiment: Inhibition of LPS-induced iNOS protein expression in mouse RAW264.7 cells pre-treated for 1 hr before LPS stimulation for 18 hrs by Western blot method; format: functional, cell-based
BV-2 [7] = experiment: Inhibition of LPS-induced iNOS protein expression in mouse BV2 cells pre-treated for 1 hr before LPS stimulation for 18 hrs by Western blot method; format: functional, cell-based
BV-2 [8] = experiment: Inhibition of LPS-induced PGE2 production in mouse BV2 cells pre-treated for 3 hrs before LPS stimulation for 24 hrs by ELISA; format: functional, cell-based
BV-2 [9] = experiment: Inhibition of LPS-induced COX2 protein expression in mouse BV2 cells pre-treated for 1 hr before LPS stimulation for 18 hrs by Western blot method; format: functional, cell-based
RAW264.7 [10] = experiment: Inhibition of LPS-induced PGE2 production in mouse RAW264.7 cells pre-treated for 3 hrs before LPS stimulation for 24 hrs by ELISA; format: functional, cell-based
[11] = biological target: T1, Tyrosine-protein phosphatase non-receptor type 1 (Homo sapiens, UniProt P18031); experiment: Inhibition of human recombinant PTP1B assessed as reduction in pNPP substrate hydrolysis incubated for 30 mins
T1 sequence (P18031 whole entry): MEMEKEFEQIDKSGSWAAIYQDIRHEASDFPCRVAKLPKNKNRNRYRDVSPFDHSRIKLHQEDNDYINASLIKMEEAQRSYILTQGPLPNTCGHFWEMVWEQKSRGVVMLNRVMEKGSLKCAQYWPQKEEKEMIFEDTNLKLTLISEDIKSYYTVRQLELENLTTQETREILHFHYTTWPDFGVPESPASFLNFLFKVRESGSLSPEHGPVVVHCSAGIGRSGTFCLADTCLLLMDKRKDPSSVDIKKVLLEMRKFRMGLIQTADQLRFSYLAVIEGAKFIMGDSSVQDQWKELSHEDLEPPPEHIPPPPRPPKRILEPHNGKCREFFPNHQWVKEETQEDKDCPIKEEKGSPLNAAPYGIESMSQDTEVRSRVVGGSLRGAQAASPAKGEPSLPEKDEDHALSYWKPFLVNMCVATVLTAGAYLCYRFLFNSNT

BV-2 [12] = experiment: Inhibition of LPS-induced IL-1beta production in mouse BV2 cells pre-treated for 3 hrs before LPS stimulation for 24 hrs by ELISA; format: functional, cell-based
[13] = biological target: T2, Tyrosine-protein phosphatase non-receptor type 1 (Homo sapiens) (UniProt P18031); experiment: Inhibition of human recombinant PTP1B assessed as reduction in pNPP substrate hydrolysis at 30 uM incubated for 30 mins
T2 sequence (whole entry): T1 sequence (P18031 whole entry)

IC50 (BV-2 [2]): 7.1 µM
IC50 (RAW264.7 [4]): 27 µM
IC50 (BV-2 [8]): 17.5 µM
IC50 (RAW264.7 [10]): 15.7 µM
IC50 [11]: 8.2 µM
IC50 (BV-2 [12]): 21.9 µM
Compound: Cc1ccc2c(c1/C=C/C=C/C(=O)O)[C@H](C)C[C@H](C)C2
inhibition (RAW264.7 [1]): Dose-dependent effect
Activity [3]: Non-toxic
Activity (RAW264.7 [5]): Non-toxic
inhibition (RAW264.7 [6]): Dose-dependent effect
inhibition (BV-2 [7]): Dose-dependent effect
inhibition (BV-2 [9]): Dose-dependent effect

IC50 (BV-2 [2]): 37.8 µM
inhibition [13]: 27.3%
Compound: Cc1ccc2c(c1/C=C\C=C\C(=O)O)[C@H](C)C[C@@](C)(O)C2

More lines, now with the values behind:

Compound: C[C@H]1C[C@@H](C)[C@@H]2[C@@H](/C=C/C=C/C(=O)O)[C@@H](C)C=C[C@H]2C1
IC50 (BV-2 [2]): 42.5 µM
IC50 [11]: 8.2 µM

Compound: C[C@@H]1C[C@@](C)(O)C[C@@H]2C=C[C@H](C)[C@H](/C=C/C=C/C(=O)O)[C@@H]12
inhibition [13]: inactive

Compound: Cc1ccc2c(c1/C=C/C=C/C(=O)O)[C@H](C)C[C@@](C)(O)C2
inhibition [13]: 24.1%
